Laboratory results taken from US12351580B2, “NLRP3 modulators” (Innate Tumor Immunity, Inc., priority 2017, dated 2025).

target: T1, hNLRP3 (Homo sapiens, UniProt Q96P20); assay: Measurement of IL-1β production in PMA-differentiated THP-1 cells (hNLRP3 agonist; ELISA, alternative and hTRF procedures); format: cell-based
T1 construct: THP-1 cells were purchased from the American Type Culture Collection; host or cells: THP-1 cells, PMA-differentiated
Procedure: Measurement of IL-1β production in PMA-differentiated THP-1 cells THP-1 cells were purchased from the American Type Culture Collection and sub-cultured according to instructions from the supplier. Prior to experiments, cells were cultured in RPMI 1640 containing 10% heat inactivated FBS, penicillin (100 units/ml) and streptomycin (100 μg/ml), and maintained in log phase prior to experimental setup. Prior to the experiment THP-1 were treated with PMA (Phorbol 12-myristate 13-acetate) ([…]) for 24 hours. The day of the experiment the media was removed and attaching cells were treated with trypsin for 2 minutes, cells were then collected, washed with PBS (phosphate buffer saline), spin down, resuspended in 2% heat inactivated FBS with RPMI at a concentration of 1×10^6 cells/ml, and 100 μl was plated in a 96 well plate. Compounds were dissolved in dimethyl sulfoxide (DMSO) and added to the culture medium to achieve desired concentration (e.g. 100, 30, 10, 3, 1, 0.3 or 0.1 μM). Cells were incubated with compounds for 4 hours. Cell free supernatant was collected and the production of […] was evaluated by ELISA. A vehicle only control was run concurrently with each experiment. Final DMSO concentration was 1%.
Measurement of IL-1β Production in PMA-Differentiated THP-1 Cells (Alternative Procedure)
THP-1 cells were purchased from the American Type Culture Collection and sub-cultured according to instructions from the supplier. Prior to experiments, cells were cultured in RPMI 1640 containing 10% heat inactivated FBS, penicillin (100 units/ml), streptomycin (100 μg/ml), HEPES (10 mM) and sodium pyruvate (1 mM) and maintained in log phase prior to experimental setup. Prior to the experiment, THP-1 cells were treated with PMA (Phorbol 12-myristate 13-acetate) (20 μg/ml) overnight. The day of the experiment, the media was removed and attached cells were treated with trypsin for 2 minutes, cells were then collected, washed with PBS (phosphate buffer saline), pelleted by centrifugation and resuspended in 2% heat inactivated FBS with RPMI at a concentration of 50,000 cells/well in a 384 well plate. Cell free supernatant was collected and the production of IL-1β was evaluated by ELISA. Compounds were dissolved in dimethyl sulfoxide (DMSO) and added to the culture medium to achieve desired concentration (e.g. 100, 30, 10, 3, 1, 0.3 or 0.1 μM). Cells were incubated with compounds for 2 hours. A vehicle only control was run concurrently with each experiment. Final DMSO concentration was 1%.
Measurement of IL-1β Production—hTRF Protocol (Second Alternative Procedure)
Serial dilutions of compounds in DMSO were added to low volume 384 well plates at 100 nl/well using an ECHO 550 acoustic dispenser (Labcyte) to achieve final starting concentration of 10 μM in assay.
THP-1 cells in RPMI (Gibco, 11875) media with 10% FBS at a density of 1×10^6 cell/ml in a T175 flask were treated with a final concentration of phorbol 12-myristate 13-acetate (PMA) (Sigma, P1585) of 50 ng/ml overnight at 37° C. at 5% CO2 for differentiation. Cells were harvested the next day after rinsing well with dPBS using 0.5% trypsin. A cell solution was prepared of 1×10^6 cells/ml for 50,000 cells in 50 μl/well in RPMI media with 2% FBS. Cells were plated using a multichannel pipette onto the compound dilutions in Greiner, 384 well, black clear bottom tissue culture treated plates (781090). The plates were incubated in 37° C. incubator at 5% CO2 for 2 hours.
After the 2 hour incubation, the cell plates were spun in the centrifuge for 5 minutes at 1200 rpm. Using the Felix (CyBio), 8 μl of the supernatant was transferred to 384 well, low volume, white proxy plates. (Perkin Elmer, 6008230). A human IL1beta hTRF kit was used to analyze the supernatant (CISBIO, 62HIL1BPEG). The kit instructions were followed for preparing the IL1Beta standard curve and then the antibodies from the kit were diluted 1:40 rather than 1:20 as kit instructed.

T1 sequence (Q96P20 whole entry): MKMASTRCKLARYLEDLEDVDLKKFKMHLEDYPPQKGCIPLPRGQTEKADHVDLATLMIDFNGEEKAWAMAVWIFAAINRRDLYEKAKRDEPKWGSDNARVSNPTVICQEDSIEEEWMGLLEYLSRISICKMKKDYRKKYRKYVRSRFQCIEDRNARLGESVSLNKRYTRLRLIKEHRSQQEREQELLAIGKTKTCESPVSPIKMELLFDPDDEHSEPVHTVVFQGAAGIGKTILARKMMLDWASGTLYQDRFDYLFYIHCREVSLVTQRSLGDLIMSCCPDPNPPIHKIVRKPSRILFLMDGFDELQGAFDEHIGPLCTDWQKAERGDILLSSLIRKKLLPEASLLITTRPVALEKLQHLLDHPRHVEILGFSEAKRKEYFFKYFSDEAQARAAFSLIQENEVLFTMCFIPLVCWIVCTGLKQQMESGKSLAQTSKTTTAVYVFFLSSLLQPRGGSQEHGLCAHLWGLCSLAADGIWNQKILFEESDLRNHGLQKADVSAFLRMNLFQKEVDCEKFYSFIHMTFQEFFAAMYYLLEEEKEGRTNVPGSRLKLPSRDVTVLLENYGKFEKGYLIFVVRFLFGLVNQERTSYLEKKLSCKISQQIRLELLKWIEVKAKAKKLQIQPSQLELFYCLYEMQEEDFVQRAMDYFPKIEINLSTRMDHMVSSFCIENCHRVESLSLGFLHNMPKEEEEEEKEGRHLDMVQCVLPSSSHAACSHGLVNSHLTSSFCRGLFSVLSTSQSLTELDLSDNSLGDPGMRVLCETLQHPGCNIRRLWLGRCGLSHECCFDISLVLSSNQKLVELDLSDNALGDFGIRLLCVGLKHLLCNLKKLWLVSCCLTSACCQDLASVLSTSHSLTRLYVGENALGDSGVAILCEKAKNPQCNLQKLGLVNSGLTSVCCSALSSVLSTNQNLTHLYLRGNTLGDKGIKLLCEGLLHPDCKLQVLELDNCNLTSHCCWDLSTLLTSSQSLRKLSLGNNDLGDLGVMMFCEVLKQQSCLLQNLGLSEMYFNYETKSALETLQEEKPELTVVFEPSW

Row | EC50 [µM] | SMILES
1 | 0.52 | Nc1nc2cc(-n3cccn3)ccc2c2[nH]c(CN3CC(c4ccccc4)CC3=O)nc12 (stereo not drawn) [Compound 103]
2 | 0.6 | CCN(Cc1nc2c(N)nc3cc(C)ccc3c2[nH]1)C(C)=O [Compound 104]
3 | 0.7 | CCNCc1nc2c(N)nc3cc(-c4cc[nH]n4)ccc3c2n1C [Compound 106, 2-((Ethylamino)methyl)-1-methyl-7-(1H-pyrazol-3-yl)-1H-imidazo[4,5-c]quinolin-4-amine]
4 | 0.87 | CCN(Cc1nc2c(N)nc3cc(-n4cccn4)ccc3c2[nH]1)S(C)(=O)=O [Compound 108, N-((4-Amino-7-(1H-pyrazol-1-yl)-1H-imidazo[4,5-c]quinolin-2-yl)methyl)-N-ethylmethanesulfonamide]
5 | 0.88 | CCN(Cc1nc2c(N)nc3cc(-c4cc[nH]n4)ccc3c2[nH]1)C(=O)OC(C)(C)C [Compound 109, tert-Butyl ((4-amino-7-(1H-pyrazol-3-yl)-1H-imidazo[4,5-c]quinolin-2-yl)methyl)(ethyl)carbamate]
6 | 0.9 | CCN(Cc1nc2c(N)nc3cc(-c4cc[nH]n4)ccc3c2[nH]1)C(=O)N(C)C [Compound 110, 1-((4-Amino-7-(1H-pyrazol-3-yl)-1H-imidazo[4,5-c]quinolin-2-yl)methyl)-1-ethyl-3,3-dimethylurea]
7 | 48.4 | Nc1nc2cc(C(F)(F)F)ccc2c2[nH]c(CN3CCCC3=O)nc12 [Compound 163]
8 | 4.6 | CCN(Cc1nc2c(N)nc3ccccc3c2n1CCCC(=O)OC)C(C)=O [Compound 164]
9 | 0.19 | CCN(Cc1nc2c(N)nc3cc(-c4ccccc4)ccc3c2[nH]1)C(C)=O [Compound 165, N-[(4-amino-7-phenyl-1H-imidazo[4,5-c]quinolin-2-yl)methyl]-N-ethylacetamide]
10 | 3.4 | CCN(Cc1nc2c(N)nc3cc(-c4cccnc4)ccc3c2[nH]1)C(C)=O [Compound 166, N-[(4-amino-7-pyridin-3-yl-1H-imidazo[4,5-c]quinolin-2-yl)methyl]-N-ethylacetamide]
11 | 58 | CCN(Cc1nc2c(N)nc3cc(-c4ccncc4)ccc3c2[nH]1)C(C)=O [Compound 167, N-[(4-amino-7-pyridin-4-yl-1H-imidazo[4,5-c]quinolin-2-yl)methyl]-N-ethylacetamide]
12 | 101 | CCN(Cc1nc2c(N)nc3cc(-c4cc(C)nn4C)ccc3c2[nH]1)C(C)=O [Compound 168, N-[[4-amino-7-(2,5-dimethylpyrazol-3-yl)-1H-imidazo[4,5-c]quinolin-2-yl]methyl]-N-ethylacetamide]
13 | 92 | CCCn1cc(-c2ccc3c(c2)nc(N)c2nc(CN(CC)C(C)=O)[nH]c23)cn1 [Compound 169, N-[[4-amino-7-(1-propylpyrazol-4-yl)-1H-imidazo[4,5-c]quinolin-2-yl]methyl]-N-ethylacetamide]
14 | 7.9 | CCN(Cc1nc2c(N)nc3cc(C(C)C)ccc3c2[nH]1)C(C)=O [Compound 170, N-[(4-amino-7-propan-2-yl-1H-imidazo[4,5-c]quinolin-2-yl)methyl]-N-ethylacetamide]
15 | 3.2 | CCc1ccc2c(c1)nc(N)c1nc(CN(CC)C(C)=O)[nH]c12 [Compound 171, N-[(4-amino-7-ethyl-1H-imidazo[4,5-c]quinolin-2-yl)methyl]-N-ethylacetamide]
16 | 2.1 | CCCc1ccc2c(c1)nc(N)c1nc(CN(CC)C(C)=O)[nH]c12 [Compound 172, N-[(4-amino-7-propyl-1H-imidazo[4,5-c]quinolin-2-yl)methyl]-N-ethylacetamide]
17 | 0.84 | CCN(Cc1nc2c(N)nc3cc(C4CCCC4)ccc3c2[nH]1)C(C)=O [Compound 173, N-[(4-amino-7-cyclopentyl-1H-imidazo[4,5-c]quinolin-2-yl)methyl]-N-ethylacetamide]
18 | 2.6 | CCN(Cc1nc2c(N)nc3cc(-c4cccnc4F)ccc3c2[nH]1)C(C)=O [Compound 175, N-[[4-amino-7-(2-fluoropyridin-3-yl)-1H-imidazo[4,5-c]quinolin-2-yl]methyl]-N-ethylacetamide]
19 | 25.7 | CCN(Cc1nc2c(N)nc3ccccc3c2[nH]1)C(C)=O [Compound 176]
20 | 7.4 | CCN(Cc1nc2c(N)nc3cc(Br)ccc3c2[nH]1)C(C)=O [Compound 177]
21 | 12.5 | CCN(Cc1nc2c(N)nc3cc(Cl)ccc3c2[nH]1)C(C)=O [Compound 179, N-[(4-amino-7-chloro-1H-imidazo[4,5-c]quinolin-2-yl)methyl]-N-ethylacetamide]
22 | 1.5 | CCN(Cc1nc2c(N)nc3cc(-n4cccn4)ccc3c2[nH]1)C(C)=O [Compound 180, N-[(4-amino-7-pyrazol-1-yl-1H-imidazo[4,5-c]quinolin-2-yl)methyl]-N-ethylacetamide]
23 | 0.52 | CCN(Cc1nc2c(N)nc3cc(C4=CCCC4)ccc3c2[nH]1)C(C)=O [Compound 183]

Row | EC50 [µM] | SMILES
24 | 64 | CC(=O)N(C)Cc1nc2c(N)nc3ccccc3c2[nH]1 [Compound 187]
25 | 5.7 | COC(=O)CCCn1c(CN(C)C(C)=O)nc2c(N)nc3ccccc3c21 [Compound 188]
26 | 10.3 | CCN(Cc1nc2c(N)nc3cc(C4CC4)ccc3c2n1Cc1ccc(OC)cc1)C(C)=O [Compound 190]
27 | 65 | CCN(Cc1nc2c(N)nc3ccccc3c2n1CCCNC(=O)OC(C)(C)C)C(C)=O [Compound 191]
28 | 7.9 | CCN(Cc1nc2c(N)nc3ccc(Br)cc3c2[nH]1)C(C)=O [Compound 194]
29 | 32.7 | CCN(Cc1nc2c(N)nc3cc(N4CCNC4=O)ccc3c2n1Cc1ccc(OC)cc1)C(C)=O [Compound 196]
30 | 13.7 | CCN(Cc1nc2c(N)nc3ccc(Cl)cc3c2[nH]1)C(C)=O [Compound 197]
31 | 24.2 | CCOC(=O)c1cc2c(cc1Br)nc(N)c1nc(CN(CC)C(C)=O)[nH]c12 [Compound 198]
32 | 11.9 | CCN(Cc1nc2c(N)nc3ccc(Br)cc3c2[nH]1)C(=O)OC [Compound 200]
33 | 20.8 | CCN(Cc1nc2c(N)nc3ccc(Br)cc3c2[nH]1)S(C)(=O)=O [Compound 201]
34 | 35.9 | CCN(Cc1nc2c(N)nc3ccc(Br)cc3c2[nH]1)S(=O)(=O)c1ccc(C)cc1 [Compound 202]
35 | 10.8 | CCN(Cc1nc2c(N)nc3ccc(Br)cc3c2[nH]1)C(=O)C(C)C [Compound 203]
36 | 6.7 | CCN(Cc1nc2c(N)nc3ccc(Br)cc3c2[nH]1)C(=O)c1ccccc1 [Compound 204]
37 | 36 | CCN(Cc1nc2c(N)nc3ccccc3c2n1CCC(=O)N1CCOCC1)C(=O)OC(C)(C)C [Compound 205]
38 | 73 | CCN(Cc1nc2c(N)nc3ccc(-n4cccn4)cc3c2[nH]1)C(C)=O [Compound 207]
39 | 22 | CCN(Cc1nc2c(N)nc3cc(Br)ccc3c2n1CCCC(=O)N1CCN(C)CC1)C(C)=O [Compound 209]
40 | 61 | CCN(Cc1nc2c(N)nc3cc(Br)ccc3c2n1CCCC(=O)NC)C(C)=O [Compound 210]
41 | 40 | CCN(Cc1nc2c(N)nc3ccccc3c2n1CCC(=O)N1CCN(C(=O)OC(C)(C)C)CC1)C(=O)OC(C)(C)C [Compound 211]
42 | 85 | CCN(Cc1nc2c(N)nc3ccccc3c2n1CCC(=O)N1CCN(C(=O)OC(C)(C)C)CC1)C(C)=O [Compound 212]
43 | 17.6 | CCN(Cc1nc2c(N)nc3cc(Br)ccc3c2n1CCCC(=O)N(C)C)C(C)=O [Compound 213]
44 | 51.5 | CCN(Cc1nc2c(N)nc3cc(Br)ccc3c2n1CCCC(=O)N1CCOCC1)C(C)=O [Compound 214]
45 | 18.2 | CN(C)C(=O)CCCn1c(CN2CCCC2=O)nc2c(N)nc3cc(Br)ccc3c21 [Compound 215]
